ChEMBL document CHEMBL5346880, “ATP-competitive inhibitors of human DNA topoisomerase IIα with improved antiproliferative activity based on N-phenylpyrrolamide scaffold” (Eur J Med Chem, 2023)
Activity calls are given as the source filed them. The calls are words filed in the database; no cut-off is given here.

Experiments:
[1] = molecular target: T1, DNA topoisomerase 2-alpha (Homo sapiens, UniProt P11388); experiment: Inhibition of human DNA topoisomerase 2 alpha assessed as relaxation of supercoiled plasmid pNO1 DNA incubated for 30 mins by fluorescence based analysis
T1 sequence (P11388 whole entry): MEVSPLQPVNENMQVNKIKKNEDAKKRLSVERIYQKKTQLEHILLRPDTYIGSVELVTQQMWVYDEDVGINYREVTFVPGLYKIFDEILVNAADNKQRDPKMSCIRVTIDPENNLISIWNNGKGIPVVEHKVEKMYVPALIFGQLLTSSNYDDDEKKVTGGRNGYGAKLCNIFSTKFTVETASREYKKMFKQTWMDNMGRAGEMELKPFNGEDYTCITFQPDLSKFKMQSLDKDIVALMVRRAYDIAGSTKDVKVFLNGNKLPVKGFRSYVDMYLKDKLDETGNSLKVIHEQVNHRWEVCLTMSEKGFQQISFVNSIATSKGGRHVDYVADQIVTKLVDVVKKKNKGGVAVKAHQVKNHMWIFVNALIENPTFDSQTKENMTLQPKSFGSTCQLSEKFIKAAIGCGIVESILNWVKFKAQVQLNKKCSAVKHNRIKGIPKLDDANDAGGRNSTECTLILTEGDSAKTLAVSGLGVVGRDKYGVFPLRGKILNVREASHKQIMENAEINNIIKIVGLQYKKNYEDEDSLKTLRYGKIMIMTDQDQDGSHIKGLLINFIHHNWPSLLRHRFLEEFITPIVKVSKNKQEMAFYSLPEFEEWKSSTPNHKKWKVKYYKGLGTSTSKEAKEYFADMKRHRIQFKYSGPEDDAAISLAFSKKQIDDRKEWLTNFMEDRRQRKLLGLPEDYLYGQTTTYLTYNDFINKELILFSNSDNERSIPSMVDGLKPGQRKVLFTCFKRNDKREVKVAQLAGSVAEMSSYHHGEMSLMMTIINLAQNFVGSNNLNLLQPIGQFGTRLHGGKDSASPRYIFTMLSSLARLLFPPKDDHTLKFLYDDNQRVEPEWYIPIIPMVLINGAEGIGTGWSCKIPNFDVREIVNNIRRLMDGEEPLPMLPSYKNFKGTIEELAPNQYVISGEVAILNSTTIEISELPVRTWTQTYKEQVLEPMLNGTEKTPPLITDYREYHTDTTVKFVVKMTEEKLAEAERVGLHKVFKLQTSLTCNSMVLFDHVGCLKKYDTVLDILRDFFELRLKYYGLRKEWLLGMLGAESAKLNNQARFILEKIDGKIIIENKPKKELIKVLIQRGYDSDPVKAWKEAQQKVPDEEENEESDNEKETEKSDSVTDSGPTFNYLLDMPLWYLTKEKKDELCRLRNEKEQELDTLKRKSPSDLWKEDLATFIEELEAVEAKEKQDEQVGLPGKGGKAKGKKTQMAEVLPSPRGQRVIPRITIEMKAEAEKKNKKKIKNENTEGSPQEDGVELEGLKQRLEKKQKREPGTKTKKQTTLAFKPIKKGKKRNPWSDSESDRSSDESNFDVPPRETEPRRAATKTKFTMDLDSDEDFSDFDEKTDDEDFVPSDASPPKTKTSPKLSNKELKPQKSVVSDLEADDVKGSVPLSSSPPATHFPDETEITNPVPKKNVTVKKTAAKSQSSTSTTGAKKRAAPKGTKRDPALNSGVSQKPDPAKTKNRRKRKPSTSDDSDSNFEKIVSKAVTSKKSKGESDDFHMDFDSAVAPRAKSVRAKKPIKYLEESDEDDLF

[2] = molecular target: T1, DNA topoisomerase 2-alpha; experiment: Inhibition of human DNA topoisomerase 2 alpha assessed as ATP hydrolysis measured for 30 mins by absorbance based assay
[3] = Thermodynamic aqueous solubility of compound in PBS buffer at pH 7.4 at 25 degreeC measured after 24 hrs by UPLC analysis; type: physicochemical; settings: read-out: Therm_solubility
[4] = Metabolic stability in rat liver S9 fraction assessed as half life at 100 uM measured upto 120 mins in presence of NADPH by HPLC analysis; type: ADME, subcellular
[5] = tested on: COLO 205; experiment: Cytotoxicity against human COLO 205 cells assessed as reduction in cell viability at 10 uM by MTT assay; type: functional, cell-based
[6] = tested on: HCC 2998; experiment: Cytotoxicity against human HCC 2998 cells assessed as reduction in cell viability at 10 uM by MTT assay; type: functional, cell-based
[7] = tested on: HCT-116; experiment: Cytotoxicity against human HCT-116 cells assessed as reduction in cell viability at 10 uM by MTT assay; type: functional, cell-based
[8] = tested on: HCT-15; experiment: Cytotoxicity against human HCT-15 cells assessed as reduction in cell viability at 10 uM by MTT assay; type: functional, cell-based
[9] = tested on: HT-29; experiment: Cytotoxicity against human HT-29 cells assessed as reduction in cell viability at 10 uM by MTT assay; type: functional, cell-based
[10] = tested on: KM12; experiment: Cytotoxicity against human KM12 cells assessed as reduction in cell viability at 10 uM by MTT assay; type: functional, cell-based
[11] = tested on: SW-620; experiment: Cytotoxicity against human SW620 cells assessed as reduction in cell viability at 10 uM by MTT assay; type: functional, cell-based
[12] = tested on: CCRF-CEM; experiment: Cytotoxicity against human CCRF-CEM cells assessed as reduction in cell viability at 10 uM by MTT assay; type: functional, cell-based
[13] = tested on: HL-60; experiment: Cytotoxicity against human HL-60 cells assessed as reduction in cell viability at 10 uM by MTT assay; type: functional, cell-based
[14] = tested on: K562; experiment: Cytotoxicity against human K562 cells assessed as reduction in cell viability at 10 uM by MTT assay; type: functional, cell-based
[15] = tested on: MOLT-4; experiment: Cytotoxicity against human MOLT-4 cells assessed as reduction in cell viability at 10 uM by MTT assay; type: functional, cell-based
[16] = tested on: SR; experiment: Cytotoxicity against human SR cells assessed as reduction in cell viability at 10 uM by MTT assay; type: functional, cell-based
[17] = molecular target: DNA topoisomerase 2-beta (Homo sapiens, UniProt Q02880); experiment: Inhibition of human DNA topoisomerase 2 beta assessed as relaxation of supercoiled plasmid pBR322 DNA incubated for 30 mins by ethidium bromide staining based agarose gel electrophoresis
DNA topoisomerase 2-beta, sequence (Q02880 whole entry): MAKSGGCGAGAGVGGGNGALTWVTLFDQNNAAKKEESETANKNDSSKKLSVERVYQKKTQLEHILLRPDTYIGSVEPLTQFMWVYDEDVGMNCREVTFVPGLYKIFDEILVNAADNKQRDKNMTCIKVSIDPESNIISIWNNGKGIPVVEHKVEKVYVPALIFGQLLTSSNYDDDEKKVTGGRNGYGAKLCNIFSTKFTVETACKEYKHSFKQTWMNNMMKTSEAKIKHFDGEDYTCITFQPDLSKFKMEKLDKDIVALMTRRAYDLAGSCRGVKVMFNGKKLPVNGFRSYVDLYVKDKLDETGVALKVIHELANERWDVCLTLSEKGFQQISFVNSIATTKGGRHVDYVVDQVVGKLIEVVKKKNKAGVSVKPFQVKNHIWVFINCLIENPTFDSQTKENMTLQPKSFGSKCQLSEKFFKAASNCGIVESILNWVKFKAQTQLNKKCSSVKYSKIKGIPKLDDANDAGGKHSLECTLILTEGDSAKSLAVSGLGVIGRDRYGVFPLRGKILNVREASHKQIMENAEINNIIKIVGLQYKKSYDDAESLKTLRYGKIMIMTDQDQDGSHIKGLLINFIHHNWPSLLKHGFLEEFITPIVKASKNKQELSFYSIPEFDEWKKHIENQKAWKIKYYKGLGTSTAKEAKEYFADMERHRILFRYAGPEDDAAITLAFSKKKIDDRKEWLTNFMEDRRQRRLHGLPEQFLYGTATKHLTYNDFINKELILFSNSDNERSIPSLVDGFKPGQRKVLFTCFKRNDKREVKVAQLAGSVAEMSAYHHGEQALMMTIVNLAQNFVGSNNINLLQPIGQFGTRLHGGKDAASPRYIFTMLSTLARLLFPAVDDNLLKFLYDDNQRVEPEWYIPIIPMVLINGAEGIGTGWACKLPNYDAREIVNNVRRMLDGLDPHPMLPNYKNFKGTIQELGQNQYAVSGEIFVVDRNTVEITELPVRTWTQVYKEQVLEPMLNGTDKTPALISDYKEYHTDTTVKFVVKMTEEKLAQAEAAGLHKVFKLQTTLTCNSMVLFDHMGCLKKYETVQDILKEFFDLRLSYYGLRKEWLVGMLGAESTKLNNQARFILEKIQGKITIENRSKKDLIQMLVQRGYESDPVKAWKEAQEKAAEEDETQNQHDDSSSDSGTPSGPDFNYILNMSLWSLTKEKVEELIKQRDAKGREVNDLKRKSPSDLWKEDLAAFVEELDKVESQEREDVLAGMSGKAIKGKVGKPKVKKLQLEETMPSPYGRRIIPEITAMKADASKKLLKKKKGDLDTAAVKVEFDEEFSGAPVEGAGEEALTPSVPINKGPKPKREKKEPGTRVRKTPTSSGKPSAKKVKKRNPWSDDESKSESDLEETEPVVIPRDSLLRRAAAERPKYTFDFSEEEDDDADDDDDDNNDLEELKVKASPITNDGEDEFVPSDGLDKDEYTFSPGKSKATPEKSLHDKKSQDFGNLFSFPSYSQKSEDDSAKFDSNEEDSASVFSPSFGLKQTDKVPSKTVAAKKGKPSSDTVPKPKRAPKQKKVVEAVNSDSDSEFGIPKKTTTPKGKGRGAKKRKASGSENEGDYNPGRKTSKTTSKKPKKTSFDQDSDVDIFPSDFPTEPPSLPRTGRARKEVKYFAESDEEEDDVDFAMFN

[18] = molecular target: T2, DNA topoisomerase 1 (Homo sapiens, UniProt P11387); experiment: Inhibition of human DNA Topoisomerase 1 assessed as relaxation of supercoiled plasmid pBR322 DNA incubated for 30 mins by ethidium bromide staining based agarose gel electrophoresis
T2 sequence (P11387 whole entry): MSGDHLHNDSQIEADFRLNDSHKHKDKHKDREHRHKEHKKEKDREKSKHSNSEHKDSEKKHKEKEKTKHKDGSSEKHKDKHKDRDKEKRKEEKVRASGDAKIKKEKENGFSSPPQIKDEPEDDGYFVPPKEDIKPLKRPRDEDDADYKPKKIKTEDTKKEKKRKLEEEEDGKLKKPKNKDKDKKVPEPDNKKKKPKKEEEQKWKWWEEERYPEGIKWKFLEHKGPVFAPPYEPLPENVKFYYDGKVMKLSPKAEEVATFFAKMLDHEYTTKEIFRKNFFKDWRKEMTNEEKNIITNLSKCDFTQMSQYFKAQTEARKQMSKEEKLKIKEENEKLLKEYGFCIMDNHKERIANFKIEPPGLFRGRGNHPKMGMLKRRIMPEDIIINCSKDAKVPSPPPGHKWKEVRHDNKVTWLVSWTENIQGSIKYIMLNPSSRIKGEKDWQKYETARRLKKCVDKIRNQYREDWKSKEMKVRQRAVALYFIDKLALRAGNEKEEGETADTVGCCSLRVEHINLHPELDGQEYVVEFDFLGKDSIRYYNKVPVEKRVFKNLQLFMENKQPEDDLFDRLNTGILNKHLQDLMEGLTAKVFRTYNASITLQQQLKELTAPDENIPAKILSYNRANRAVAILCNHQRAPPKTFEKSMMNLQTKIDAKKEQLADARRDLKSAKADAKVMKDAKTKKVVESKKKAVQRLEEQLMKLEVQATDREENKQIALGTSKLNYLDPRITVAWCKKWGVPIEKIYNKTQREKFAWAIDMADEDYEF

IC50 [1] [nM]	IC50 [2] [nM]	solubility thermodynamic at 24 h [3] [µM]	half-life at 100 µM [4] [h]	IC50 [17] [nM]	IC50 [18] [nM]	SMILES	Activity [5]	Activity [6]	Activity [7]	Activity [8]	Activity [9]	Activity [10]	Activity [11]	Activity [12]	Activity [13]	Activity [14]	Activity [15]	Activity [16]
6000	2800	16	> 5			Cc1[nH]c(C(=O)Nc2ccc(C(=O)NCCN)cc2OC(C)C)c(Cl)c1Cl.Cl	Active	Active	Active	Active	Active	Active	Active	Active	Active	Active	Active	Active
670		9.2	1.67	550	> 5000	Cc1[nH]c(C(=O)Nc2ccc(C(N)=O)cc2OCc2ccc(C(=O)NCCN)cc2)c(Cl)c1Cl.Cl.Cl												
